Laboratory results: patent US20220306659A1, “COMPOUND INHIBITING AND INDUCING DEGRADATION OF EGFR AND ALK” (BEIJING TIDE PHARMACEUTICAL CO., LTD., priority 2019, published 2022)

Tests used:
[1] = target: T1, Ba/F3(EML4-ALK) cells (Homo sapiens, UniProt Q9UM73); experiment: Assay of activity on Ba/F3(EML4-ALK) cells (CTG, 72 h); assay type: cell-based; settings: read-out: IC50 (nM) Ba/F3(EML4-ALK)
T1 construct: fused on or other part: Q9HC35 (Echinoderm microtubule-associated protein-like 4)
Procedure, shortened: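 Ba/F3(EML4-ALK) cells, 700 per well, were exposed to 3-fold serial compound dilutions for 72 h at 37° C, 5% CO2, and viability was then read by CTG luminescence.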

[2] = target: Ba/F3(EGFR^L858R/T790M/C797S) cells (Homo sapiens, UniProt P00533, T790M/C797S/L858R, cells depend on it); experiment: Assay of activity on Ba/F3 cells (CTG, 72 h); assay type: cell-based; settings: read-out: IC50 (nM) Ba/F3 (EGFR^L858R/T790M/C797S)
Procedure, shortened: (§1)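 Ba/F3 cells dependent on each EGFR triple mutant were exposed to 3-fold compound dilutions for 72 h at 37° C, 5% CO2, with CellTiter-Glo luminescence as the read-out.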

[3] = target: T2, EGFR^L858R/T790M/C797S (Homo sapiens, UniProt P00533, C797S/L858R/T790M); experiment: Assay of activity of compounds to induce EGFR protein degradation (Alpha counts); assay type: cell-based; set-up: expressed in transfected cells; host or cells: Ba/F3; settings: 24 h
Text: (§2) Assay of activity of compounds to induce EGFR^58R/IT790M/C797S and EGFR^Dell9/T790M/C797S protein degradation
(§3) In order to further explain the reason why the compounds of the present disclosure have inhibitory activity on Ba/F3(EGFR^58R/IT790M/C797S) and Ba/F3(EGFR^Dell9/T790M/C797S) cells, representative compounds C176 and C213 were selected to study the mechanism of action of the compounds, and observe their effects on EGFR^58R/IT790M/C797S and EGFR^Dell9/T790M/C797S protein levels.
(§4) Ba/F3(EGFR^58R/IT790M/C797S) and Ba/F3(EGFR^Dell9/T790M/C797S) cells were cultured according to the culture conditions recommended by ATCC, and analyzed by index.
(§5) Complete medium: 1640 medium, 10% FBS, 1× glutamine, 1× penicillin-streptomycin.
(§6) Culture conditions: incubated at 37° C., 95% air, 5% CO2 incubator.
(§7) (2) Compound stock solution: 10 mM stock solution in DMSO, stored at −20° C.
(§8) (3) Preparation of cell suspension:
(§9) The cells in the cell culture bottle were collected, and the cells with viability of >90% can be used in the assay. Cells were seeded in a 96-well plate with 40 μL cells, 1*10^5 cells/well.
(§10) Compound was diluted 3× with DMSO, starting at 1.0 mM (for EGFR^58R/IT790M/C797S assay) and 5 mM (for EGFR^Dell9/T790M/C797S assay), respectively, into 10 concentrations to prepare working solutions.
(§11) (5) Compound was pipetted into the 96-well plate to treat cells in a 37° C., 95% air, 5% CO2 incubator for 24 h.
(§12) 1) 1 μg/mL of EGF activated cells were treated for 10 min;
(§13) 2) After the compound treatment, lysis buffer was added to lyse cells; 10 μL of cell lysate was transferred to a 384-well plate; in addition, control lysate and negative control plus 5 μL of acceptor mix were added to the 384-well plate, and shaken on a shaker for 1-2 min;
(§14) 3) 5 μL of donor mix was added to each well; the 384-well plate was sealed, shaken on a shaker for 1-2 min, left in the dark at room temperature overnight, and read with an enzyme labeling instrument.
(§15) Alpha counts were fitted by logarithmic treatment of compound concentration with Graphpad Prism 8.0.
(§16) Y=Bottom+(Top−Bottom)/(1+10^((LogIC50−X)*HillSlope))
(§17) X: logarithm of compound concentration; Y: Alpha Counts.

[4] = target: T2, EGFR^L858R/T790M/C797S; experiment: EGFR inhibitory activity assay (TK-substrate-biotin/ATP, 665/615 ratio); assay type: biochemical; settings: kinase inhibition
Procedure, shortened: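 HTRF kinase assay: enzyme preincubated with compound 10 min at room temperature, then reacted with biotinylated TK substrate and ATP for 40 min at room temperature.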

[5] = target: Ba/F3(EGFR^Del19/T790M/C797S) cells (Homo sapiens, UniProt P00533, DEL746-750/T790M/C797S, cells depend on it); experiment: Assay of activity on Ba/F3 cells (CTG, 72 h); assay type: cell-based; settings: read-out: IC50 (nM) Ba/F3 (EGFR^Del19/T790M/C797S)
Procedure, shortened: as §1

[6] = target: EGFR^Del19/T790M/C797S (Homo sapiens, UniProt P00533, C797S/DEL746-750/T790M); experiment: Assay of activity of compounds to induce EGFR protein degradation (Alpha counts); assay type: cell-based; set-up: expressed in transfected cells; host or cells: Ba/F3; settings: 24 h
Text: as §2, §3, §4, §5, §6, §7, §8, §9, §10, §11, §12, §13, §14, §15, §16, §17

T1 sequence (Q9UM73 whole entry, change not shown, the tested form may be a part): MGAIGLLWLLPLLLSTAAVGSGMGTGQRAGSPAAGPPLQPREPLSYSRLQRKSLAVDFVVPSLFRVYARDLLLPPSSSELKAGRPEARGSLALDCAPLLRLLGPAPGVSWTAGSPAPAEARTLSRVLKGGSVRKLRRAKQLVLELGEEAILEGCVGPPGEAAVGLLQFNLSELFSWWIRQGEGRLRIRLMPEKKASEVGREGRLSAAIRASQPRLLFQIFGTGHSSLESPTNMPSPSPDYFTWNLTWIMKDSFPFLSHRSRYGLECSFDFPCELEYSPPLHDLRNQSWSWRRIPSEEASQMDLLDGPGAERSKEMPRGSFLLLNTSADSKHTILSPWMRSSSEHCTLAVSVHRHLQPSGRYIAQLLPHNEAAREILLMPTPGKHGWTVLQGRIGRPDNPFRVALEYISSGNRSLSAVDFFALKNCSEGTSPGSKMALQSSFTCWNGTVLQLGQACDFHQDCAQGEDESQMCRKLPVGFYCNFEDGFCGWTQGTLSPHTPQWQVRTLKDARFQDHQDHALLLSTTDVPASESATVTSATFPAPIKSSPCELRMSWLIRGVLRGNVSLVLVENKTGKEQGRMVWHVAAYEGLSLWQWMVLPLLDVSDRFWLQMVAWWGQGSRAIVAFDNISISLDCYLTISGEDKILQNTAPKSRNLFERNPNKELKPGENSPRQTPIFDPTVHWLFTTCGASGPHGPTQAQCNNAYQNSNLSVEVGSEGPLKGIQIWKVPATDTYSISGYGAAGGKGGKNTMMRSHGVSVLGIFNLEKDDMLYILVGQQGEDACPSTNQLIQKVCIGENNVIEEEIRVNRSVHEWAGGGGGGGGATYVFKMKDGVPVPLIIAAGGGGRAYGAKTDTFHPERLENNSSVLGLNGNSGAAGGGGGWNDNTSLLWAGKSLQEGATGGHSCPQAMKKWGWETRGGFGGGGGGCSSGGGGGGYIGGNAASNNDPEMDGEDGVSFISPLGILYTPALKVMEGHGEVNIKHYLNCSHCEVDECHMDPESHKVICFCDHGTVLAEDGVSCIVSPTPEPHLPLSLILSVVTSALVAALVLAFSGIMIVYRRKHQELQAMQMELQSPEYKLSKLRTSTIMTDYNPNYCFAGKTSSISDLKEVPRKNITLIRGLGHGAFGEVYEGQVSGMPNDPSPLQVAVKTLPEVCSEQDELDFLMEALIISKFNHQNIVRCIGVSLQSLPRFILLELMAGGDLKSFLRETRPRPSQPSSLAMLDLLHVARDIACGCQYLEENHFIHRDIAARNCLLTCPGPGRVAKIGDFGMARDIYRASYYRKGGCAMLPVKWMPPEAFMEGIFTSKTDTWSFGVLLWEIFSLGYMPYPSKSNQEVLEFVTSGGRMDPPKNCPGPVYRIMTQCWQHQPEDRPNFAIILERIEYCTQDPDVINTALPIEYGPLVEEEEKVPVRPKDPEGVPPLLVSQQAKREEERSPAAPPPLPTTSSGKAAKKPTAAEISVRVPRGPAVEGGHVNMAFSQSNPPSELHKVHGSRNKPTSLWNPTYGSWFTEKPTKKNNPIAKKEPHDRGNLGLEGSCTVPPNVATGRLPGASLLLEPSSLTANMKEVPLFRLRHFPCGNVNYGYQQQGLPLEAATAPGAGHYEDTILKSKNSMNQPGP

In the case of `COc1cc(N2CCC(N3CCN(CCOCC#Cc4cccc5c4CN(C4CCC(=O)NC4=O)C5=O)CC3)CC2)ccc1Nc1ncc(Cl)c(Nc2ccccc2P(C)(C)=O)n1` (stereo not drawn) [Compound C176, 3-(4-(3-(2-(4-(1-(4-((5-chloro-4-((2-(dimethylphosphoryl)phenyl)amino)pyrimidin-2-yl)amino)-3-methoxyphenyl)piperidin-4-yl)piperazin-1-yl)ethoxy)prop-1-yn-1-yl)-1-oxoisoindolin-2-yl)piperidine-2,6-dione], the GI50 [1] is reported as 1 to 100 nM, the GI50 [2] is reported as 1 to 100 nM and the DC50 ([3]; Ba/F3(EGFR^L858R/T790M/C797S) cells, 0.01 nM to 1000 nM, FIG. 1, read-out: DC50 of EGFR^L858R/T790M/C797S protein level) is reported as 0.0314 µM. The “effect on EGFR^L858R/T790M/C797S protein level (in words)” value ([3]; Ba/F3 cells, dose-dependent) was “significantly reduces” and the IC50 [4] was 1 to 100 nM.
`COc1cc(N2CCC3(CCN(CCCCCOc4cccc5c4CN(C4CCC(=O)NC4=O)C5=O)CC3)CC2)c(C)cc1Nc1ncc(Br)c(Nc2ccc3nccnc3c2P(C)(C)=O)n1` (stereo not drawn) [Compound C213, 3-(4-((5-(9-(4-((5-bromo-4-((5-(dimethylphosphoryl)quinoxalin-6-yl)amino)pyrimidin-2-yl)amino)-5-methoxy-2-methylphenyl)-3,9-diazaspiro[5.5]undecan-3-yl)pentyl)oxy)-1-oxoisoindolin-2-yl)piperidine-2,6-dione] showed a GI50 [5] of 1 to 100 nM, a GI50 [2] of 1 to 100 nM and a DC50 ([6]; Ba/F3(EGFR^Del19/T790M/C797S) cells, 0.1 nM to 10000 nM, FIG. 2, read-out: DC50 of EGFR^Del19/T790M/C797S protein level) of 0.0113 µM. The “effect on EGFR^Del19/T790M/C797S protein level (in words)” value ([6]; Ba/F3 cells, dose-dependent) was “significantly reduces”.
